Each structure is given as a SMILES string.

One assay deals with HepG2 cells. Nature of the assay: HepG2 cell viability under serum-free conditions (MTS). In kind it is cell-based. The conditions noted are these: Homo sapiens, HepG2, 72 h; 5 μM, 3 days, DMEM without FBS; read-out: Average Viability (% Inhibition, n = 3). On the procedure:
Cancer cells such as HepG2 cells depend on SREBP activation and de novo lipogenesis to survive, particularly in low serum or serum-free conditions. Using this model, compounds were screened over 24 hours for the ability to block cleavage of SREBP to its active form and over 72 hours for an effect on cell viability under serum-free conditions.
For viability measurements, HepG2 cells were seeded at 5,000 cells per well in 96-well plates in DMEM supplemented with 10% FBS. After 1 day in culture, cells were treated with compounds (20 μM & 5 μM) for 3 days in DMEM without FBS. Viability was measured by MTS […]. […]
Consider `O=S(=O)(Nc1ccc(-c2csc(-c3ccnc(CC4CCCCC4)c3)n2)c(Cl)c1)C(F)(F)F` [Compound 70, N-(3-chloro-4-{2-[2-(cyclohexylmethyl)pyridin-4-yl]-1,3-thiazol-4-yl}phenyl)-1,1,1-trifluoromethanesulfonamide], for which the cytotoxicity at 5 µM is 100%.
As to `O=S(=O)(Nc1ccc(-c2csc(-c3cccc4ccccc34)n2)c(Cl)c1)C(F)(F)F` [Compound 71, N-{3-chloro-4-[2-(naphthalen-1-yl)-1,3-thiazol-4-yl]phenyl}-1,1,1-trifluoromethanesulfonamide], the cytotoxicity at 5 µM was 97%.
Same read-out and setting: the result for `O=S(=O)(Nc1ccc(-c2csc(-c3ccc4cc[nH]c4c3)n2)c(Cl)c1)C(F)(F)F` [Compound 72, N-{3-chloro-4-[2-(1H-indol-6-yl)-1,3-thiazol-4-yl]phenyl}-1,1,1-trifluoromethanesulfonamide] reads 94%.
Take `O=S(=O)(Nc1ccc(-c2csc(-c3ccc(C(F)(F)F)c(OCc4ccccc4)c3)n2)c(Cl)c1)C(F)(F)F` [Compound 73, N-(4-{2-[3-(benzyloxy)-4-(trifluoromethyl)phenyl]-1,3-thiazol-4-yl}-3-chlorophenyl)-1,1,1-trifluoromethanesulfonamide]: the cytotoxicity at 5 µM was 99%.
In the case of `O=S(=O)(Nc1ccc(-c2csc(-c3ccccc3-c3ccccc3)n2)c(Cl)c1)C(F)(F)F` [Compound 74, N-{3-chloro-4-[2-(2-phenylphenyl)-1,3-thiazol-4-yl]phenyl}-1,1,1-trifluoromethanesulfonamide], the cytotoxicity at 5 µM amounted to 97%.
`O=S(=O)(Nc1ccc(-c2csc(-c3cncc4ccccc34)n2)c(Cl)c1)C(F)(F)F` [Compound 75, N-{3-chloro-4-[2-(isoquinolin-4-yl)-1,3-thiazol-4-yl]phenyl}-1,1,1-trifluoromethanesulfonamide]: the cytotoxicity at 5 µM came to 88%.
Same read-out and setting: the result for `CN1CCN(c2cc(-c3nc(-c4ccc(NS(=O)(=O)C(F)(F)F)cc4Cl)cs3)ccn2)CC1` [Compound 76, N-(3-chloro-4-{2-[2-(4-methylpiperazin-1-yl)pyridin-4-yl]-1,3-thiazol-4-yl}phenyl)-1,1,1-trifluoromethanesulfonamide] reads 3%.
For `Cc1noc(C)c1-c1nc(-c2ccc(NS(=O)(=O)C(F)(F)F)cc2Cl)cs1` [Compound 77, N-{3-chloro-4-[2-(dimethyl-1,2-oxazol-4-yl)-1,3-thiazol-4-yl]phenyl}-1,1,1-trifluoromethanesulfonamide], the cytotoxicity at 5 µM came to 41%.
As to `Cc1ccc(S(=O)(=O)Nc2cccc(-c3nc(-c4ccc(NS(=O)(=O)C(F)(F)F)cc4Cl)cs3)c2)cc1` [Compound 78, N-{3-[4-(2-chloro-4-trifluoromethanesulfonamidophenyl)-1,3-thiazol-2-yl]phenyl}-4-methylbenzene-1-sulfonamide], the cytotoxicity at 5 µM came to 87%.
Same read-out and setting: the result for `COc1ccc(-c2nc(-c3ccc(NS(=O)(=O)C(F)(F)F)cc3Cl)cs2)cc1OC` [Compound 79, N-{3-chloro-4-[2-(3,4-dimethoxyphenyl)-1,3-thiazol-4-yl]phenyl}-1,1,1-trifluoromethanesulfonamide] reads 74%; that for `O=S(=O)(Nc1ccc(-c2csc(-c3cccc4[nH]ccc34)n2)c(Cl)c1)C(F)(F)F` [Compound 80, N-{3-chloro-4-[2-(1H-indol-4-yl)-1,3-thiazol-4-yl]phenyl}-1,1,1-trifluoromethanesulfonamide], 86%.
Regarding `O=S(=O)(Nc1ccc(-c2csc(-c3ccc(F)cc3C(F)(F)F)n2)c(Cl)c1)C(F)(F)F` [Compound 81, N-[3-chloro-4-[2-[4-fluoro-2-(trifluoromethyl)phenyl]thiazol-4-yl]phenyl]-1,1,1-trifluoro-methanesulfonamide], the cytotoxicity at 5 µM worked out at 88%.
On to `O=S(=O)(Nc1ccc(-c2csc(-c3ccc4c(c3)CCO4)n2)c(Cl)c1)C(F)(F)F` [Compound 82, N-{3-chloro-4-[2-(2,3-dihydro-1-benzofuran-5-yl)-1,3-thiazol-4-yl]phenyl}-1,1,1-trifluoromethanesulfonamide], for which the cytotoxicity at 5 µM came to 82%.
Same read-out and setting: the same measure for `O=S(=O)(Nc1ccc(-c2csc(-c3cccc(CO)c3)n2)c(Cl)c1)C(F)(F)F` [Compound 83, N-(3-chloro-4-{2-[3-(hydroxymethyl)phenyl]-1,3-thiazol-4-yl}phenyl)-1,1,1-trifluoromethanesulfonamide]: 0%; for `O=S(=O)(Nc1ccc(-c2csc(-c3ccccc3CO)n2)c(Cl)c1)C(F)(F)F` [Compound 84, N-(3-chloro-4-{2-[2-(hydroxymethyl)phenyl]-1,3-thiazol-4-yl}phenyl)-1,1,1-trifluoromethanesulfonamide]: 18%.
`O=S(=O)(Nc1ccc(-c2csc(-c3ccnc(N4CCCCC4)c3)n2)c(Cl)c1)C(F)(F)F` [Compound 85, N-(3-chloro-4-{2-[2-(piperidin-1-yl)pyridin-4-yl]-1,3-thiazol-4-yl}phenyl)-1,1,1-trifluoromethanesulfonamide]: the cytotoxicity at 5 µM turned out to be 93%.
In the case of `Cc1cnccc1-c1nc(-c2ccc(NS(=O)(=O)C(F)(F)F)cc2Cl)cs1` [Compound 86, N-{3-chloro-4-[2-(3-methylpyridin-4-yl)-1,3-thiazol-4-yl]phenyl}-1,1,1-trifluoromethanesulfonamide], the cytotoxicity at 5 µM turned out to be 27%.
Take `O=S(=O)(Nc1ccc(-c2csc(-c3ccnc4[nH]ccc34)n2)c(Cl)c1)C(F)(F)F` [Compound 87, N-[3-chloro-4-(2-{1H-pyrrolo[2,3-b]pyridin-4-yl}-1,3-thiazol-4-yl)phenyl]-1,1,1-trifluoromethanesulfonamide]: the cytotoxicity at 5 µM stood at 9%.

The same assay, now with this note: Homo sapiens, HepG2, 72 h; 20 μM, 3 days, DMEM without FBS; read-out: Average Viability (% Inhibition, n = 3).
On to `CCCc1cc(-c2nc(-c3ccc(NS(=O)(=O)C(F)(F)F)cc3)cs2)ccn1` [Compound 1, 1,1,1-trifluoro-N-(4-(2-(2-propylpyridin-4-yl)thiazol-4-yl)phenyl)methanesulfonamide], for which the cytotoxicity at 20 µM is 92.1%.
Same read-out and setting: the result for `CCCc1cc(-c2nc(-c3cccc(NS(=O)(=O)C(F)(F)F)c3)cs2)ccn1` [Compound 2, 1,1,1-trifluoro-N-(3-(2-(2-propylpyridin-4-yl)thiazol-4-yl)phenyl)methanesulfonamide] reads 80.5%; that for `CCCc1cc(-c2nc(-c3ccc(NS(=O)(=O)C(F)(F)F)cc3Cl)cs2)ccn1` [Compound 4, N-(3-chloro-4-(2-(2-propylpyridin-4-yl)thiazol-4-yl)phenyl)-1,1,1-trifluoromethanesulfonamide], 94.4%; that for `COc1cc(-c2csc(-c3ccnc(CC(C)C)c3)n2)ccc1NS(=O)(=O)C(F)(F)F` [Compound 57, 1,1,1-trifluoro-N-(2-methoxy-4-{2-[2-(2-methylpropyl)pyridin-4-yl]-1,3-thiazol-4-yl}phenyl) methanesulfonamide], 56.4%.
The same measure, in the same setting: the result for `CCCc1cc(-c2nc(-c3ccc(NS(=O)(=O)C(F)(F)F)c(OC)c3)cs2)ccn1` [Compound 58, 1,1,1-trifluoro-N-{2-methoxy-4-[2-(2-propylpyridin-4-yl)-1,3-thiazol-4-yl]phenyl}methanesulfonamide] reads 67.9%; that for `COc1cc(-c2csc(-c3ccnc(C(C)(C)C)c3)n2)ccc1NS(=O)(=O)C(F)(F)F` [Compound 59, N-(4-(2-(2-tert-butylpyridin-4-yl)thiazol-4-yl)-2-methoxyphenyl)-1,1,1-trifluoromethanesulfonamide], 99.8%; that for `O=S(=O)(Nc1ccc(-c2csc(-c3ccnc(Cc4ccccc4)c3)n2)c(Cl)c1)C(F)(F)F` [Compound 60, N-{4-[2-(2-benzylpyridin-4-yl)-1,3-thiazol-4-yl]-3-chlorophenyl}-1,1,1-trifluoromethanesulfonamide], 100%.
Same read-out and setting: the result for `Nc1cc(-c2nc(-c3ccc(NS(=O)(=O)C(F)(F)F)cc3Cl)cs2)ccn1` [Compound 61, N-{4-[2-(2-aminopyridin-4-yl)-1,3-thiazol-4-yl]-3-chlorophenyl}-1,1,1-trifluoromethanesulfonamide] reads 43%.
`CS(=O)(=O)Nc1cc(-c2nc(-c3ccc(NS(=O)(=O)C(F)(F)F)cc3Cl)cs2)ccn1` [Compound 62, N-{3-chloro-4-[2-(2-methanesulfonamidopyridin-4-yl)-1,3-thiazol-4-yl]phenyl}-1,1,1-trifluoromethanesulfonamide]: the cytotoxicity at 20 µM is 0%.
Take `O=S(=O)(Nc1ccc(-c2csc(-c3ccnc(CCC(F)(F)F)c3)n2)c(Cl)c1)C(F)(F)F` [Compound 64, N-(3-chloro-4-{2-[2-(3,3,3-trifluoropropyl)pyridin-4-yl]-1,3-thiazol-4-yl}phenyl)-1,1,1-trifluoromethanesulfonamide]: the cytotoxicity at 20 µM stood at 100%.
The same measure, in the same setting: the result for `O=S(=O)(Nc1ccc(-c2csc(-c3ccnc(NS(=O)(=O)C(F)(F)F)c3)n2)c(Cl)c1)C(F)(F)F` [Compound 66, N-{3-chloro-4-[2-(2-trifluoromethanesulfonamidopyridin-4-yl)-1,3-thiazol-4-yl]phenyl}-1,1,1-trifluoromethanesulfonamide] reads 11%; that for `O=C(c1ccc(-c2nc(-c3ccc(NS(=O)(=O)C(F)(F)F)cc3Cl)cs2)cc1)N1CCCCC1` [Compound 67, N-(3-chloro-4-{2-[4-(piperidine-1-carbonyl)phenyl]-1,3-thiazol-4-yl}phenyl)-1,1,1-trifluoromethanesulfonamide], 20%.

(Values after patent US10183015B2, “Heterocyclic compounds and methods of use” (Medivation Technologies LLC, priority 2015, dated 2019).)
